From ChEMBL document CHEMBL5512632, “Unlocking the potential of 1,4-naphthoquinones: A comprehensive review of their anticancer properties” (Eur J Med Chem, 2024)

Columns and labels:
MCF7 [1] = experiment: Antiproliferative activity against human MCF7 cells assessed as inhibition of cell growth incubated for 24 hrs by MTT assay; assay type: functional, cell-based; conditions: MCF7, 24 h
HCT-116 [2] = experiment: Antiproliferative activity against human HCT-116 cells assessed as inhibition of cell growth incubated for 24 hrs by MTT assay; assay type: functional, cell-based; conditions: HCT-116, 24 h
MCF7 [3] = experiment: Antiproliferative activity against human MCF7 cells assessed as inhibition of cell growth incubated for 72 hrs by MTT reagent based microplate reader assay; assay type: functional; conditions: MCF7, 72 h
HCT-15 [4] = experiment: Antiproliferative activity against human HCT-15 cells assessed as inhibition of cell growth incubated for 72 hrs by MTT reagent based microplate reader assay; assay type: functional; conditions: HCT-15, 72 h
Bel-7402 [5] = experiment: Antiproliferative activity against human Bel-7402 cells assessed as inhibition of cell growth incubated for 72 hrs by MTT reagent based microplate reader assay; assay type: functional; conditions: Bel-7402, 72 h
MGC-803 = experiment: Antiproliferative activity against human MGC-803 cells assessed as inhibition of cell growth incubated for 72 hrs by MTT reagent based microplate reader assay; assay type: functional; conditions: MGC-803, 72 h
SK-OV-3 = experiment: Cytotoxicity against human SK-OV-3 cells assessed as reduction in cell growth incubated for 24 hrs by DAPI staining based fluorescence imaging analysis; assay type: functional; conditions: SK-OV-3, 24 h
OVCAR-5 = experiment: Cytotoxicity against human OVCAR-5 cells assessed as reduction in cell growth incubated for 24 hrs by DAPI staining based fluorescence imaging analysis; assay type: functional; conditions: OVCAR-5, 24 h
[6] = Antiproliferative activity against human A875 cells assessed as inhibition of cell growth incubated for 24 hrs by MTT reagent based ELISA; assay type: functional; conditions: A875, 24 h
A2780 = experiment: Cytotoxicity against human A2780 cells incubated for 48 hrs by MTT assay; assay type: functional, cell-based; conditions: A2780, 48 h
Bel-7402 [7] = experiment: Cytotoxicity against human Bel-7402 cells incubated for 48 hrs by MTT assay; assay type: functional, cell-based; conditions: Bel-7402, 48 h
HCT-116 [8] = experiment: Cytotoxicity against human HCT-116 cells incubated for 48 hrs by MTT assay; assay type: functional, cell-based; conditions: HCT-116, 48 h
HCT-15 [9] = experiment: Cytotoxicity against human HCT-15 cells incubated for 48 hrs by MTT assay; assay type: functional, cell-based; conditions: HCT-15, 48 h
MDA-MB-231 = experiment: Cytotoxicity against human MDA-MB-231 cells incubated for 48 hrs by MTT assay; assay type: functional, cell-based; conditions: MDA-MB-231, 48 h
MDA-MB-468 = experiment: Cytotoxicity against human MDA-MB-468 cells assessed as reduction in cell growth incubated upto 72 hrs by MTT assay; assay type: functional, cell-based; conditions: MDA-MB-468, 72 h
MCF7 [10] = experiment: Cytotoxicity against human MCF7 cells assessed as reduction in cell growth incubated upto 72 hrs by MTT assay; assay type: functional, cell-based; conditions: MCF7, 72 h
MCF7 [11] = experiment: Cytotoxicity against human MCF7 cells assessed as inhibition of cell growth incubated for 72 hrs by sulforhodamine B assay; assay type: functional, cell-based; conditions: MCF7, 72 h
PC-3 [12] = experiment: Cytotoxicity against human PC-3 cells assessed as inhibition of cell growth incubated for 72 hrs by sulforhodamine B assay; assay type: functional, cell-based; conditions: PC-3, 72 h
HT-29 = experiment: Cytotoxicity against human HT-29 cells assessed as inhibition of cell growth incubated for 72 hrs by sulforhodamine B assay; assay type: functional, cell-based; conditions: HT-29, 72 h
HCT-8 = experiment: Antiproliferative activity against human HCT-8 cells assessed as inhibition of cell growth incubated for 96 hrs by CCK-8 assay; assay type: functional, cell-based; conditions: HCT-8, 96 h
DLD-1 = experiment: Antiproliferative activity against human DLD-1 cells assessed as inhibition of cell growth incubated for 96 hrs by CCK-8 assay; assay type: functional, cell-based; conditions: DLD-1, 96 h
HCT-29 = experiment: Antiproliferative activity against human HCT-29 cells assessed as inhibition of cell growth incubated for 96 hrs by CCK-8 assay; assay type: functional, cell-based; conditions: HCT-29, 96 h
[13] = Antiproliferative activity against human A875 cells assessed as inhibition of cell growth incubated for 72 hrs by MTT reagent based microplate reader assay; assay type: functional; conditions: A875, 72 h
SW872 = experiment: Antiproliferative activity against human SW872 cells assessed as inhibition of cell growth incubated for 72 hrs by MTT reagent based microplate reader assay; assay type: functional; conditions: SW872, 72 h
A549 = experiment: Antiproliferative activity against human A549 cells assessed as inhibition of cell growth incubated for 72 hrs by MTT reagent based microplate reader assay; assay type: functional; conditions: A549, 72 h
MCF7 [14] = experiment: Cytotoxicity against human MCF7 cells by sulforhodamine B staining based spectrophotometric analysis; assay type: functional, cell-based
HepG2 = experiment: Cytotoxicity against human HepG2 cells by sulforhodamine B staining based spectrophotometric analysis; assay type: functional, cell-based
HeLa = experiment: Cytotoxicity against human HeLa cells by sulforhodamine B staining based spectrophotometric analysis; assay type: functional, cell-based
PC-3 [15] = experiment: Cytotoxicity against human PC-3 cells by sulforhodamine B staining based spectrophotometric analysis; assay type: functional, cell-based
TK-10 = experiment: Cytotoxicity against human TK-10 cells by sulforhodamine B staining based spectrophotometric analysis; assay type: functional, cell-based
UACC-62 = experiment: Cytotoxicity against human UACC-62 cells by sulforhodamine B staining based spectrophotometric analysis; assay type: functional, cell-based
HL-60 = experiment: Antiproliferative activity against human HL-60 cells assessed as inhibition of cell growth incubated for 72 hrs by MTT assay; assay type: functional, cell-based; conditions: HL-60, 72 h
AGS = experiment: Antiproliferative activity against human AGS cells assessed as inhibition of cell growth incubated for 72 hrs by MTT assay; assay type: functional, cell-based
SK-MES-1 = experiment: Antiproliferative activity against human SK-MES-1 cells assessed as inhibition of cell growth incubated for 72 hrs by MTT assay; assay type: functional, cell-based; conditions: SK-MES-1, 72 h
J82 = experiment: Antiproliferative activity against human J82 cells assessed as inhibition of cell growth incubated for 72 hrs by MTT assay; assay type: functional, cell-based; conditions: J82, 72 h

Work on CC1=C/C(=N\NC(=O)CCCCCCCCCC(=O)NN)c2ccccc2C1=O yielded an IC50 (MCF7 [1]) of 56 µM and an IC50 (HCT-116 [2]) of 75 µM.
CCCCCCCC(Oc1cc(OC)c(OC)c(OC)c1)c1ccc2c(c1)/C(=N\O)C=C/C2=N\O (stereo not given) gave an IC50 (MCF7 [3]) of 6.94 µM, an IC50 (HCT-15 [4]) of 1.64 µM and an IC50 (Bel-7402 [5]) of 4.21 µM. For the same compound, the IC50 (MGC-803) was 3.28 µM.
With COc1cc(/C=C/C(=O)/C=C(O)/C=C/c2ccc(OC3=CC(=O)c4ccccc4C3=O)c(OC)c2)ccc1OC1=CC(=O)c2ccccc2C1=O the IC50 (SK-OV-3) was 5.35 µM and the IC50 (OVCAR-5) was 4.05 µM.
With CC(C)=CC[C@@H](OC(=O)Cc1ccc(Oc2ccccc2)cc1)C1=CC(=O)c2c(O)ccc(O)c2C1=O the IC50 [6] was 1.24 µM.
CCCCCCCCC(OCCC(C)C)c1ccc2c(c1OC)/C(=N\O)C=C/C2=N\O (stereo not given) gave an IC50 (A2780) of 8.26 µM, an IC50 (Bel-7402 [7]) of 5.11 µM and an IC50 (HCT-116 [8]) of 21.5 µM. The IC50 (HCT-15 [9]) was 36.4 µM and the IC50 (MDA-MB-231) was 0.66 µM.
Compound CC1=C(Cl)C(=O)c2c(O)cccc2C1=O has an IC50 (MDA-MB-468) of 0.6 µM and an IC50 (MCF7 [10]) of 2 µM.
For CN(C)N1C=C2C[C@@H](O[Si](C)(C)C(C)(C)C)[C@@H]3OC(C)(C)O[C@@H]3[C@H]2C2=C1C(=O)c1c(O)cccc1C2=O, the IC50 (MCF7 [11]) was 16 µM, the IC50 (PC-3 [12]) was 0.7 µM and the IC50 (HT-29) was 0.2 µM.
Work on COC(=O)C(CS[C@H](CC=C(C)C)C1=CC(=O)c2c(O)ccc(O)c2C1=O)NC(=O)c1cc(S(C)(=O)=O)ccc1OC (stereo not given in full) yielded an IC50 (HCT-8) of 2.16 µM, an IC50 (DLD-1) of 10 µM and an IC50 (HCT-29) of 3.57 µM.
For CC(C)=CC[C@@H](OC(=O)/C=C\c1cccc(C(F)(F)F)c1)C1=CC(=O)c2c(O)ccc(O)c2C1=O, the IC50 [13] was 0.65 µM, the IC50 (SW872) was 0.69 µM and the IC50 (A549) was 1.62 µM.
O=C1C(CSc2ccc(F)cc2)=C(C2=C(CSc3ccc(F)cc3)C(=O)c3ccccc3C2=O)C(=O)c2ccccc21 gave an IC50 (MCF7 [14]) of 3.24 µM, an IC50 (HepG2) of 8.75 µM and an IC50 (HeLa) of 31.5 µM. The IC50 (PC-3 [15]) was 6.98 µM, the IC50 (TK-10) was 3.77 µM and the IC50 (UACC-62) was 2.98 µM.
Work on CC(=O)N(C1=C2NCCN=C2c2ccccc2C1=O)c1ccccc1 yielded an IC50 (HL-60) of 11.9 µM, an IC50 (AGS) of 15.5 µM and an IC50 (SK-MES-1) of 6.4 µM. For the same compound, the IC50 (J82) was 2 µM.
